Assays:
[1] = Method B: hydroxyl radicals from hydrogen peroxide with iron(II) ions and EDTA, deoxyribose oxidation
Excerpt: Method B In the presence of iron(II)ions and EDTA, hydroxyl radicals were liberated from hydrogen peroxide and used for the oxidation of deoxyribose. The oxidation product forms a pink-colored compound with thiobarbituric acid. Its concentration corresponds to the optical density at 532 nm. It was investigated whether less deoxyribose is oxidized, i.e. fewer free radicals are liberated, in the presence of the test products. The results are summarized in Table 1; in each case the EC50 values are given in % (w/v).

[2] = Method C: deoxyribose oxidation in the absence of EDTA (inactive iron complexes)
Excerpt: (§1) The results are summarized in Table 1; in each case the EC50 values are given in % (w/v).

Xanthin oxidase = Xanthin oxidase (Homo sapiens, UniProt P47989); test: Method D: Xanthin oxidase, superoxide anion by NBT reduction, optical density at 490 nm; assay type: biochemical
Excerpt: Method D Xanthin oxidase is an enzyme which is released as a result of oxidative stress and catabolizes the degradation of the purine bases adenine and guanine into […] and superoxide anions. The latter dismutate spontaneously or in the presence of superoxide dismutase into hydrogen peroxide and oxygen.
The amount of superoxide anion can be determined by NBT reduction via the optical density at 490 nm. It was investigated whether fewer superoxide anions are generated or more anions are destroyed in the presence of the test substances.
as §1

[3] = Method A: diphenylpicrylhydrazyl free radical, optical density at 513 nm; conditions: DPPH radical
Excerpt: Method A In a first method, use was made of diphenylpicrylhydrazyl (DPPH^o), a relatively stable free radical which produces a purple-colored solution. The parameter determined was the optical density (DO) at 513 nm. The results are summarized in Table 1; in each case the EC50 values are given in % (w/v).

Chain of Xanthin oxidase (P47989 whole entry): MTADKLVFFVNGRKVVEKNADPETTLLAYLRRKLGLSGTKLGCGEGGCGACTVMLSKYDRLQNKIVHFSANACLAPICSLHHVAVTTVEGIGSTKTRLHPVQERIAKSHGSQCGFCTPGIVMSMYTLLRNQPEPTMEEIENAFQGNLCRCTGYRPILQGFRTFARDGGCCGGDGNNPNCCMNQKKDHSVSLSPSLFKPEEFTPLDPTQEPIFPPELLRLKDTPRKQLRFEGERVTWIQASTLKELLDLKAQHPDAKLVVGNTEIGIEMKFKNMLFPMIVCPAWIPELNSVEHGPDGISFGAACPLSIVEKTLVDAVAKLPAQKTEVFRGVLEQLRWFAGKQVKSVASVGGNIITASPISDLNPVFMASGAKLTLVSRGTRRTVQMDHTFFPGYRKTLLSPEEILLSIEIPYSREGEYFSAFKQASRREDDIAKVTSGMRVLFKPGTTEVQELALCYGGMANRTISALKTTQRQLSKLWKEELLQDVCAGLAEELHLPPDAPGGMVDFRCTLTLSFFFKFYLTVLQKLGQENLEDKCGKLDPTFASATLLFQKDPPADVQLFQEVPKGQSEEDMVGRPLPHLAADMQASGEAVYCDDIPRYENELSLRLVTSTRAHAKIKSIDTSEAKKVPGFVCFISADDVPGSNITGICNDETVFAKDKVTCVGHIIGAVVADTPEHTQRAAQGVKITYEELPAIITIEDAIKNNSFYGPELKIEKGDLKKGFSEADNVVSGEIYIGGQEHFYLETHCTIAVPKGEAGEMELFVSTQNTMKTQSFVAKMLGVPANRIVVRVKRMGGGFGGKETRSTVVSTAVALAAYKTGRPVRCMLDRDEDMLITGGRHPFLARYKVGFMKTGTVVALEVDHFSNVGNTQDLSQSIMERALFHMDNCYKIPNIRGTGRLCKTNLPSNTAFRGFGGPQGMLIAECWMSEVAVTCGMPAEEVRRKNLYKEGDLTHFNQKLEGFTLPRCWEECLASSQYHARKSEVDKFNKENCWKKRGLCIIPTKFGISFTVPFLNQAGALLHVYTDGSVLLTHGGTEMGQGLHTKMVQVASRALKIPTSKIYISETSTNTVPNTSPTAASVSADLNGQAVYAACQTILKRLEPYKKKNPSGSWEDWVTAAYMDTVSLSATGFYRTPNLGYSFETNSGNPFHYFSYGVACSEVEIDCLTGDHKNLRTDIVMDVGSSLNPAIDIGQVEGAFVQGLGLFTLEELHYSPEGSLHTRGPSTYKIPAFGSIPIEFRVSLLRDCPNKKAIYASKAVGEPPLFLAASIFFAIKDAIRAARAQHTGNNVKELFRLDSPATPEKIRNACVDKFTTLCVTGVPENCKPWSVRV

Compound | EC50, test method B [1] | EC50, test method C [2] | EC50 (Xanthin oxidase; read-out: EC50, test method D (converted)) [mM] | EC50, test method A [3] | EC50, test method D (Xanthin oxidase)
O=C1O[C@H]([C@@H](O)CO)C(O)=C1O [Ascorbic acid] | 0.2607% (w/v) | 0.9% (w/v) | 33.6 | 0.0013 % (w/v) | 
Tocopherol |  |  |  | 0.0067 % (w/v) | no
